US12662489B2 (Sitryx Therapeutics Limited, priority 2023, dated 2026)

What was measured:
[1] = target: T1, MTHFD1 recombinant human enzyme (Homo sapiens, UniProt P11586); test: MTHFD1 inhibition assay (NAD(P)H-Glo luminescence); conditions: MTHFD1 IC50, recombinant human enzyme 200 nM, NADP, band
T1 sequence (P11586 2-291 limits assumed): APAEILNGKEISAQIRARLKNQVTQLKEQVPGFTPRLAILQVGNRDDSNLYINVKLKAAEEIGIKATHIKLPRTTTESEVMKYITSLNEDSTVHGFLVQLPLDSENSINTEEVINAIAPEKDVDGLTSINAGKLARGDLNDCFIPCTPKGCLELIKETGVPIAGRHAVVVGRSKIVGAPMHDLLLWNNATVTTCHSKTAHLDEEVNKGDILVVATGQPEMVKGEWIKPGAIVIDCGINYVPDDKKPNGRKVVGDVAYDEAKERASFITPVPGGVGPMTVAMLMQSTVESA

[2] = target: T2, MTHFD2 recombinant human enzyme (Homo sapiens, UniProt P13995); test: MTHFD2 inhibition assay (NAD(P)H-Glo luminescence); conditions: for MTHFD1/MTHFD2 IC50 ratio: selectivity of MTHFD2 inhibition over MTHFD1, band
T2 sequence (P13995 36-350): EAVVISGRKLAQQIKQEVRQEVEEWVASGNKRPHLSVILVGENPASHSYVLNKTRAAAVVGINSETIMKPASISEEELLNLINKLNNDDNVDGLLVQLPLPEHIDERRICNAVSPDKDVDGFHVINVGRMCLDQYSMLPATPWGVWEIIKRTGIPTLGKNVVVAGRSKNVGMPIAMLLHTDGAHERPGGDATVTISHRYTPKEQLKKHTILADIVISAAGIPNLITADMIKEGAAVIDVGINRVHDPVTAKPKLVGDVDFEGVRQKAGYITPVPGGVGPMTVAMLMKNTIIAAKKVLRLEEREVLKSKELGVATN

[3] = test system: human CD4+ T cells; test: Human CD4+ T-cell proliferation assay (CFSE, CD3/28 beads); conditions: read-out: Proliferation IC50

SMILES	IC50 [1]	IC50 [2]	MTHFD1/MTHFD2 IC50 ratio [2]	IC50 [3]
COC[C@H]1CN(c2cc(C)c3c4c(c(=O)oc3c2C)CN(C(=O)c2cc(N(C)C)c(C(=O)NS(=O)(=O)N3CCC[C@H](OC)C3)cc2F)CC4)CCN1C [Example 281, 2-(dimethylamino)-5-fluoro-4-(8-((R)-3-(methoxymethyl)-4-methylpiperazin-1-yl)-7,10-dimethyl-5-oxo-1,3,4,5-tetrahydro-2H-chromeno[3,4-c]pyridine-3-carbonyl)-N-(((S)-3-methoxypiperidin-1-yl)sulfonyl)benzamide]	100 to 1000 nM	10 to 100 nM	H (>9.0 to 30)	1 to 10 nM
COC[C@H]1CN(c2cc(Cl)c3c4c(c(=O)oc3c2C)CN(C(=O)c2cc(N(C)C)c(C(=O)NS(=O)(=O)N(C)C)cc2Cl)CC4)CCN1C [Example 291, (R)-5-chloro-4-(10-chloro-8-(3-(methoxymethyl)-4-methylpiperazin-1-yl)-7-methyl-5-oxo-1,3,4,5-tetrahydro-2H-chromeno[3,4-c]pyridine-3-carbonyl)-2-(dimethylamino)-N-(N,N-dimethylsulfamoyl)benzamide]	1000 to 5000 nM	10 to 100 nM	J (>30)	30 to 100 nM
COC[C@H]1CN(c2cc(C)c3c4c(c(=O)oc3c2C)CN(C(=O)c2cc(N(C)C)c(C(=O)NS(=O)(=O)N3CCC[C@H]3C(F)(F)F)cc2F)CC4)CCN1C [Example 292, 2-(dimethylamino)-5-fluoro-4-(8-((R)-3-(methoxymethyl)-4-methylpiperazin-1-yl)-7,10-dimethyl-5-oxo-1,3,4,5-tetrahydro-2H-chromeno[3,4-c]pyridine-3-carbonyl)-N-(((S)-2-(trifluoromethyl)pyrrolidin-1-yl)sulfonyl)benzamide]	100 to 1000 nM	10 to 100 nM	J (>30)	1 to 10 nM
COC[C@H]1CN(c2cc(Cl)c3c4c(c(=O)oc3c2C)CN(C(=O)c2cc(N(C)C)c(C(=O)NS(=O)(=O)N3C[C@H]5C[C@@H]3CO5)cc2F)CC4)CCN1C [Example 294, N-(((1R,4R)-2-oxa-5-azabicyclo[2.2.1]heptan-5-yl)sulfonyl)-4-(10-chloro-8-((R)-3-(methoxymethyl)-4-methylpiperazin-1-yl)-7-methyl-5-oxo-1,3,4,5-tetrahydro-2H-chromeno[3,4-c]pyridine-3-carbonyl)-2-(dimethylamino)-5-fluorobenzamide]	100 to 1000 nM	10 to 100 nM	J (>30)	10 to 30 nM
COC[C@H]1CN(c2cc(Cl)c3c4c(c(=O)oc3c2C)CN(C(=O)c2cc(N(C)C)c(C(=O)NS(=O)(=O)N3CC[C@H](F)C3)cc2F)CC4)CCN1C [Example 302, 4-(10-chloro-8-((R)-3-(methoxymethyl)-4-methylpiperazin-1-yl)-7-methyl-5-oxo-1,3,4,5-tetrahydro-2H-chromeno[3,4-c]pyridine-3-carbonyl)-2-(dimethylamino)-5-fluoro-N-(((S)-3-fluoropyrrolidin-1-yl)sulfonyl)benzamide]	100 to 1000 nM	10 to 100 nM	J (>30)	10 to 30 nM
COC[C@H]1CN(c2cc(Cl)c3c4c(c(=O)oc3c2C)CN(C(=O)c2cc(N(C)C)c(C(=O)NS(=O)(=O)N3CC[C@@H](F)C3)cc2F)CC4)CCN1C [Example 303, 4-(10-chloro-8-((R)-3-(methoxymethyl)-4-methylpiperazin-1-yl)-7-methyl-5-oxo-1,3,4,5-tetrahydro-2H-chromeno[3,4-c]pyridine-3-carbonyl)-2-(dimethylamino)-5-fluoro-N-(((R)-3-fluoropyrrolidin-1-yl)sulfonyl)benzamide]	100 to 1000 nM	1 to 10 nM	J (>30)	10 to 30 nM
COC[C@H]1CN(c2cc(F)c3c4c(c(=O)oc3c2C)CN(C(=O)c2cc(N(C)C)c(C(=O)NS(=O)(=O)N3C5CCC3CC5)cc2F)CC4)CCN1C [Example 304, (R)-N-((7-azabicyclo[2.2.1]heptan-7-yl)sulfonyl)-2-(dimethylamino)-5-fluoro-4-(10-fluoro-8-(3-(methoxymethyl)-4-methylpiperazin-1-yl)-7-methyl-5-oxo-1,3,4,5-tetrahydro-2H-chromeno[3,4-c]pyridine-3-carbonyl)benzamide]	1000 to 5000 nM	10 to 100 nM	–	10 to 30 nM
COC[C@H]1CN(c2cc(F)c3c4c(c(=O)oc3c2C)CN(C(=O)c2cc(N(C)C)c(C(=O)NS(=O)(=O)N3CCCC3)cc2F)CC4)CCN1C [Example 308, (R)-2-(dimethylamino)-5-fluoro-4-(10-fluoro-8-(3-(methoxymethyl)-4-methylpiperazin-1-yl)-7-methyl-5-oxo-1,3,4,5-tetrahydro-2H-chromeno[3,4-c]pyridine-3-carbonyl)-N-(pyrrolidin-1-ylsulfonyl)benzamide]	100 to 1000 nM	1 to 10 nM	J (>30)	1 to 10 nM
COC[C@H]1CN(c2cc(Cl)c3c4c(c(=O)oc3c2C)CN(C(=O)c2cc(F)c(C(=O)NS(=O)(=O)N3CCCC3)cc2C)CC4)CCN1C [Example 310, (R)-4-(10-chloro-8-(3-(methoxymethyl)-4-methylpiperazin-1-yl)-7-methyl-5-oxo-1,3,4,5-tetrahydro-2H-chromeno[3,4-c]pyridine-3-carbonyl)-2-fluoro-5-methyl-N-(pyrrolidin-1-ylsulfonyl)benzamide]	1000 to 5000 nM	10 to 100 nM	J (>30)	30 to 100 nM
COC[C@H]1CN(c2cc(C)c3c4c(c(=O)oc3c2C)CN(C(=O)c2cc(N(C)C)c(C(=O)NS(=O)(=O)N3CCC[C@@H]3COC)cc2F)CC4)CCN1C [Example 311, 2-(dimethylamino)-5-fluoro-4-(8-((R)-3-(methoxymethyl)-4-methylpiperazin-1-yl)-7,10-dimethyl-5-oxo-1,3,4,5-tetrahydro-2H-chromeno[3,4-c]pyridine-3-carbonyl)-N-(((R)-2-(methoxymethyl)pyrrolidin-1-yl)sulfonyl)benzamide]	1000 to 5000 nM	1 to 10 nM	J (>30)	1 to 10 nM
COC[C@H]1CN(c2cc(C)c3c4c(c(=O)oc3c2C)CN(C(=O)c2cc(N(C)C)c(C(=O)NS(=O)(=O)N3CCC[C@H]3COC)cc2F)CC4)CCN1C [Example 312, 2-(dimethylamino)-5-fluoro-4-(8-((R)-3-(methoxymethyl)-4-methylpiperazin-1-yl)-7,10-dimethyl-5-oxo-1,3,4,5-tetrahydro-2H-chromeno[3,4-c]pyridine-3-carbonyl)-N-(((S)-2-(methoxymethyl)pyrrolidin-1-yl)sulfonyl)benzamide]	100 to 1000 nM	1 to 10 nM	J (>30)	10 to 30 nM
COC[C@H]1CN(c2cc(C)c3c4c(c(=O)oc3c2C)CN(C(=O)c2cc(N(C)C)c(C(=O)NS(=O)(=O)N3C[C@@H]5C[C@H]3CO5)cc2F)CC4)CCN1C [Example 313, N-(((1S,4S)-2-oxa-5-azabicyclo[2.2.1]heptan-5-yl)sulfonyl)-2-(dimethylamino)-5-fluoro-4-(8-((R)-3-(methoxymethyl)-4-methylpiperazin-1-yl)-7,10-dimethyl-5-oxo-1,3,4,5-tetrahydro-2H-chromeno[3,4-c]pyridine-3-carbonyl)benzamide]	100 to 1000 nM	1 to 10 nM	J (>30)	30 to 100 nM
